Measured values as given in PMC7753040, “Discovery of a Potent RIPK3 Inhibitor for the Amelioration of Necroptosis-Associated Inflammatory Injury” (Frontiers in Cell and Developmental Biology, 2020).
pIC50: −log10 of the molar value.

How the values were obtained:
[1] = tested on: L929 cells; assay: HSV-1-induced necroptosis in L929 cells (cell viability); assay type: cell-based, mouse; details: 2 h pretreatment, 24 h after HSV-1 infection
Protocol: (§1) Cells were seeded in 96-well plates and then treated as indicated. The cell viability was determined by assessment of ATP levels using the CellTiter-Glo Luminescent Cell Viability Assay kit following the manufacture’s instructions (Promega). Luminescence was calculated with SpectraMax i3x (Molecular Devices).
(§2) Cell viability was determined by measuring ATP levels. L, LPS; Z, z-VAD. […] After 5 h, cell viability was determined by measuring ATP levels and ICP6 mRNA expression was detected using viral genome extracted from cell culture supernatant. *P < 0.05. **P < 0.01. ***P < 0.001.

[2] = tested on: phosphorylation of RIPK1, RIPK3, and MLKL; assay: Western blot of phosphorylation of RIPK1, RIPK3 and MLKL in L929 cells upon necroptotic stimuli; assay type: cell-based, mouse; details: 2 h pretreatment, TNF-α/z-VAD 4 h
Protocol: (§3) The cell pellets were harvested and dissolved in lysis buffer (20 mM Tris–HCl, pH 7.4 150 mM NaCl, 1% Triton X-100, 1 mM Na3VO4, 10% glycerol, 25 mM β-glycerol-phosphate, 0.1 mM PMSF, with the Sigma phosphatase inhibitors and the Roche Pierce protease inhibitor set). The re-suspended cell pellet was then incubated on ice for 20 min, followed by centrifugation at 13000 × g for 20 min at 4°C. The supernatants were collected and protein concentrations were measured using the BCA Protein Assay Kit (Thermo Fisher Scientifc, United States). Finally, cell lysates were subjected for western-blot analysis of the indicated antibodies.
(§4) Cell lysates were prepared for immunoprecipitation using an anti-Flag antibody. The levels of RIPK3 and RIPK1 in the immunocomplex were determined by western blot analysis.

[3] = tested on: HT-29 cells; assay: TNF-induced necroptosis in HT-29 cells (cell viability, ATP levels); assay type: cell-based, human; details: 2 h pretreatment, then TNF-α 40 ng/ml, Smac mimetic 100 nM, z-VAD 20 μM for 48 h, focused library, compared to GSK’872
Protocol: as §1
To discover novel inhibitors of necroptosis, we designed and synthesized a focused library with novel structures based on the GSK’872 scaffold.
Cell viability was assessed by measuring ATP levels. […] T, TNF-α; S, Smac mimetic; Z, z-VAD.

[4] = Metabolic stability in mouse liver microsomes; assay type: in vitro ADME; details: mouse liver microsomes (MLM)
[5] = tested on: mouse bone marrow derived macrophages; assay: TLR4-mediated necroptosis induced by LPS/z-VAD in mouse bone marrow-derived macrophages; assay type: cell-based; details: mouse BMDM; 2 h pretreatment, LPS 20 ng/ml plus z-VAD for 24 h
Excerpt: (§5) Human colon cancer HT-29 and mouse fibrosarcoma L929 cells were from ATCC. Mouse embryonic fibroblasts (MEF), HT-29 cells stably expressing RIPK3-shRNA and shRNA resistant scramble Flag-tagged RIPK3 (W46), and NIH3T3 cell line stably expressing RIPK3 fused to mutant FK506-binding protein (NIH3T3-RIPK3) were kindly provided by Dr. Xiaodong Wang [National Institute of Biological Sciences (NIBS), Beijing]. HeLa-MLKL (1-190) cell line was a gift from Dr. Zhigao Wang (University of Texas Southwestern Medical Center at Dallas). These cells were cultured in Dulbecco’s modified Eagle’s medium (Hyclone) supplemeted with 10% fetal bovine serum (Invitrogen) and 2 mM L-glutamine (Invitrogen) in a humidified incubator at 37°C and 5% CO2. NIH3T3-RIPK3 was cultured in complete medium containing 2 μg/ml G418 (Calbiochem). […]
as §1
(§6) Cell viability was determined by measuring ATP levels. […] After 5 h, cell viability was determined by measuring ATP levels and ICP6 mRNA expression was detected using viral genome extracted from cell culture supernatant. *P < 0.05. **P < 0.01. ***P < 0.001.

[6] = molecular target: CYP2C9 (Homo sapiens, UniProt P11712); assay: Cytochrome P450 inhibition, CYP2C9; assay type: in vitro ADME
Protocol: (§7) Cytochrome P450 (CYP) inhibitory potency was determined by industrial standard methods as reported previously ([Dong et al., 2015]). Methods to determine potassium channel hERG inhibition and in vivo pharmacokinetic parameters have been previously published ([Lu et al., 2017]).

[7] = tested on: mouse BMDM; assay: LPS/z-VAD-induced expression of inflammatory cytokines in mouse BMDM (Q-PCR); assay type: cell-based; details: 2 h pretreatment, LPS 20 ng/ml plus z-VAD 20 μM, 7 h, mRNA
Protocol: Total RNA was extracted using TRIzol Reagent (Invitrogen) from cell pellets. cDNA was synthesized using a Revert Aid First Strand cDNA kit (Thermo Fisher Scientifc). Real-time PCR was performed using corresponding primers and Power SYBR® Green PCR Master Mix (Invitrogen). The data were normalized to GAPDH. The primer sequences are as follows: ICP6 Forward: […], Reverse: GGT […]; TNFα Forward: […], Reverse: […]; CCL3 Forward: […], Reverse: […]; CXCL1 Forward: GCACCC […], Reverse: […] CAGA; GAPDH Forward: […], Reverse: […].

[8] = molecular target: hERG (Homo sapiens, UniProt Q12809); assay: hERG inhibition (standard patch clamp); assay type: cell-based
Protocol: as §7

[9] = tested on: phosphorylation of RIPK1, RIPK3, and MLKL; assay: Western blot of phosphorylation of RIPK1, RIPK3 and MLKL in HT-29 cells upon necroptotic stimuli; assay type: cell-based, human; details: 2 h pretreatment, TNF-α/Smac mimetic/z-VAD 8 h
Protocol: as §3, §4

[10] = tested on: rat bone marrow derived macrophages; assay: TLR4-mediated necroptosis induced by LPS/z-VAD in rat bone marrow-derived macrophages; assay type: cell-based; details: rat BMDM; 2 h pretreatment, LPS 20 ng/ml plus z-VAD for 24 h
Excerpt: as §5, §1, §6

[11] = tested on: HSV-1 ICP6; assay: Expression of viral gene ICP6 after HSV-1 infection of L929 cells (real-time PCR); assay type: cell-based, herpes simplex virus (HSV)-1; details: culture supernatants 5 h post HSV-1 infection
Protocol: Total RNA was extracted using TRIzol Reagent (Invitrogen) from cell pellets. cDNA was synthesized using a Revert Aid First Strand cDNA kit (Thermo Fisher Scientifc). Real-time PCR was performed using corresponding primers and Power SYBR® Green PCR Master Mix (Invitrogen). The data were normalized to GAPDH. The primer sequences are as follows: ICP6 Forward: […] , Reverse: GGT […]; TNFα Forward: […] , Reverse: […]; CCL3 Forward: […] , Reverse: […]; CXCL1 Forward: GCACCC […] , Reverse: […] CAGA; GAPDH Forward: […] , Reverse: […] .
as §2

[12] = tested on: NIH3T3-RIPK3 cells; assay: RIPK3 dimerization-induced cell death in NIH3T3-RIPK3 cells (AP20187); assay type: cell-based, mouse; details: 2 h pretreatment, AP20187 60 nM 24 h
Excerpt: as §5, with “CO2.” for “CO2. NIH3T3-RIPK3 was cultured in complete medium containing 2 μg/ml G418 (Calbiochem).”
as §1
In vitro kinase activity assays using recombinant RIPK3 and RIPK1 were performed as described in the section “Materials and Methods.” Data represent mean value ± standard deviation. […] Cell viability was determined by measuring ATP levels. […] Cell viability was determined by measuring ATP levels. […]

[13] = In vivo mouse pharmacokinetic study; details: male ICR mouse
Protocol: as §7
(C) Pharmacokinetic parameters of Zharp-99 determined in male ICR mouse.

Sequence of CYP2C9 (P11712 whole entry): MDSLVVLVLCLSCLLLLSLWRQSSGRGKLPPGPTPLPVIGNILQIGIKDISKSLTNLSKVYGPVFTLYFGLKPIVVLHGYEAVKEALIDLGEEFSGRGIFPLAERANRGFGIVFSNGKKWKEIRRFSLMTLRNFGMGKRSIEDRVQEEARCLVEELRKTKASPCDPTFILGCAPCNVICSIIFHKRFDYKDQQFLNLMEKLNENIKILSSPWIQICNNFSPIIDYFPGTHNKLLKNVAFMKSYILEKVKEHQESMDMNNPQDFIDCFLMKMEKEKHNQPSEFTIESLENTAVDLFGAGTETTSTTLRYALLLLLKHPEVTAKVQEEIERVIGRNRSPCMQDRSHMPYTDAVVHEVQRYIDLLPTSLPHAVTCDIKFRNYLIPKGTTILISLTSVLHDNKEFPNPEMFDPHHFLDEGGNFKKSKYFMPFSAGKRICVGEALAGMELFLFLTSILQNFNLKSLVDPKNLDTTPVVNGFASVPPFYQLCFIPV
Sequence of hERG (Q12809 whole entry): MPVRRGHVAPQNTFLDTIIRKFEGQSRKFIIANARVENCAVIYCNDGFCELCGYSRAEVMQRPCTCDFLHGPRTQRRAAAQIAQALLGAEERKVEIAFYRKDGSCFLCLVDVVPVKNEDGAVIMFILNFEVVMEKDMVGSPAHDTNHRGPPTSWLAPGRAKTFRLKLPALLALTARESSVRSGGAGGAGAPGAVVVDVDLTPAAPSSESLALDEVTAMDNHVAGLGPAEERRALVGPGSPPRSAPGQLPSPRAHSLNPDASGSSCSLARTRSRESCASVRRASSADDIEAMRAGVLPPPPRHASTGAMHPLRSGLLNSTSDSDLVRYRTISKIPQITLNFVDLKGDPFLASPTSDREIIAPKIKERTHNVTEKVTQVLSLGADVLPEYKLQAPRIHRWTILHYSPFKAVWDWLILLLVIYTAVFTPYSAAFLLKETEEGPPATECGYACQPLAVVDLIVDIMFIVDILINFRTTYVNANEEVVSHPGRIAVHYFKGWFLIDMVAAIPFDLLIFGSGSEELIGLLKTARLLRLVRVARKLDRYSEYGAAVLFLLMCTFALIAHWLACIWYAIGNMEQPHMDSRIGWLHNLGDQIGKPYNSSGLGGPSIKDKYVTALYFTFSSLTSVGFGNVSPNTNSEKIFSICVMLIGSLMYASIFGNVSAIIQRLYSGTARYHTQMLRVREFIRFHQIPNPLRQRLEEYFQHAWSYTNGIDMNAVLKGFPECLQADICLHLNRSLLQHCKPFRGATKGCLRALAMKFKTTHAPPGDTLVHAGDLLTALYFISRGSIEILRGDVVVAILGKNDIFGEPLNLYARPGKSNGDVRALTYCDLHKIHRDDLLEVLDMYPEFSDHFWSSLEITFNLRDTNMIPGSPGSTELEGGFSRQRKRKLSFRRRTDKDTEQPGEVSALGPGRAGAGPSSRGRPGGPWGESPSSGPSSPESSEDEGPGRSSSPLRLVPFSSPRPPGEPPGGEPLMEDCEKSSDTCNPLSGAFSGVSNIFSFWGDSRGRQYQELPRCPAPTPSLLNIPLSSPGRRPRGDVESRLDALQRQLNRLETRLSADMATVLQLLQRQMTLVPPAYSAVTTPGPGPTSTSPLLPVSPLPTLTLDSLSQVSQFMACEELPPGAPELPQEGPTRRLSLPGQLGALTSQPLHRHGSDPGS

O=S1(=O)C=C(C2CC2)c2cc3nccc(Nc4ccc5scnc5c4)c3cc21 [Zharp-99]
inhibition of HSV-1 induced necroptosis [1]: significantly inhibited | phosphorylation of MLKL [2]: blocked | phosphorylation of RIPK3 [2]: blocked | inhibition of TNF-induced necroptosis [3]: most efficient inhibitor | half-life [4]: 0.433 h | inhibition of TLR4-mediated necroptosis induced by LPS/z-VAD [5]: potently blocked | % of CYP inhibiton 2C9 ([6]; 10 μM): did not inhibit | inhibition at 10 µM ([6]; human, read-out: % of CYP inhibiton 2C9): -5.59% | LPS/z-VAD-induced expression of inflammatory cytokines including TNFα, CCL3, and CXCL1 [7]: could inhibit | pIC50 [8]: < 5.00 | RIPK1 phosphorylation at S166 [9]: did not reduce | phosphorylation of MLKL [9]: abolished | phosphorylation of RIPK3 [9]: abolished | inhibition of TLR4-mediated necroptosis induced by LPS/z-VAD [10]: potently blocked | effect on expression of viral gene ICP6 [11]: did not affect | RIPK3 dimerization-induced necroptosis [12]: efficiently blocked | Cmax ([13]; 2 mg/kg (iv)): 1390 ng/mL | half-life ([13]; 2 mg/kg (iv)): 1.5 h | AUC ([13]; 2 mg/kg (iv), read-out: AUC): 990 ng·h/mL | clearance ([13]; 2 mg/kg (iv), read-out: CL (clearance)): 33 mL/min/kg | Vd ([13]; 2 mg/kg (iv), read-out: Vz (volume of distribution)): 4.4 L/kg | Cmax ([13]; 10 mg/kg (po)): 2650 ng/mL | Tmax ([13]; 10 mg/kg (po)): 1 h | half-life ([13]; 10 mg/kg (po)): 1.2 h
